Results on 6 molecules are retold here after ChEMBL document CHEMBL5236548, “Marine Natural Products: A Potential Source of Anti-hepatocellular Carcinoma Drugs” (J Med Chem, 2021).

Data set [1] relates to PLC-PRF-5. Briefly: Induction of cell cycle arrest in human PLC-PRF-5 cells assessed as accumulation of cells at G0/G1 phase at 100 nM incubated for 24 hrs relative to control. It counts as functional.
Data set [2] relates to SMMC-7721. The data set is described as follows: Antitumor activity against human SMMC-7721 cells xenografted in mouse assessed as reduction in tumor growth at 50 microg/kg administered daily for 40 days relative to control. Details: scale not given: the % may be the effect or the level left. The settings on record: dose 50 µg/kg; time 40 day. It counts as functional. A general note: A xenograft is tissue or cells of one species grown in another, often human tumour cells in immunodeficient mice.

Data set [3] relates to SMMC-7721. Briefly: Induction of cell cycle arrest in human SMMC-7721 cells assessed as accumulation of cells at G0/G1 phase at 50 nM incubated for 24 hrs relative to control. The format is functional.
The test system of data set [4] is PLC-PRF-5. The data set is described as follows: Induction of cell cycle arrest in human PLC-PRF-5 cells assessed as accumulation of cells at G0/G1 phase at 50 nM incubated for 24 hrs relative to control. The format is functional.
The test system of data set [5] is SMMC-7721. The data set is described as follows: Induction of cell cycle arrest in human SMMC-7721 cells assessed as accumulation of cells at G0/G1 phase at 100 nM incubated for 24 hrs relative to control. The format is functional.
Data set [6] relates to SMMC-7721. The data set is described as follows: Induction of cell cycle arrest in human SMMC-7721 cells assessed as accumulation of cells at G0/G1 phase at 200 nM incubated for 24 hrs relative to control. It counts as functional.
For data set [7], the system named is SMMC-7721. Briefly: Antitumor activity against human SMMC-7721 cells xenografted in mouse assessed as reduction in tumor growth at 25 microg/kg administered daily for 40 days relative to control. The settings on record: dose 25 µg/kg; time 40 day. Also noted: scale not given: the % may be the effect or the level left. It counts as functional.
The test system of data set [8] is PLC-PRF-5. The data set is described as follows: Induction of cell cycle arrest in human PLC-PRF-5 cells assessed as accumulation of cells at G0/G1 phase at 200 nM incubated for 24 hrs relative to control. It counts as functional.
In data set [9] the test system is SK-HEP1. Briefly: Cytotoxicity against human SK-HEP1 cells measured after 1 hr by SRB assay. The settings on record: SK-HEP1, 1 h. The format is functional, cell-based. In general terms: The SRB assay estimates cell density from bound dye.
Data set [10] is described as follows: Cytotoxicity against human Huh-7D12 cells measured after 1 hr by SRB assay. It counts as functional, cell-based. The settings on record: Huh-7D12, 1 h.
Data set [11] deals with HepG2. Briefly: Cytotoxicity against human HepG2 cells measured after 1 hr by SRB assay. The format is functional, cell-based. The settings on record: HepG2, 1 h.
For data set [12], the system named is PLC-PRF-5. Briefly: Cytotoxicity against human PLC-PRF-5 cells measured after 1 hr by SRB assay. It counts as functional, cell-based. The settings on record: PLC-PRF-5, 1 h.
Data set [13] relates to Hep 3B2. The data set is described as follows: Cytotoxicity against human Hep3B cells measured after 1 hr by SRB assay. It counts as functional, cell-based.
The nature of data set [14]: Antitumor activity against human HCCLM3 cells xenografted in BALB/c nude mouse assessed as reduction in Ki67 at 20 mg/kg measured for 14 days (reference value: 41.67+/-7.22% ). The settings on record: time 14 day. It counts as functional. Details: scale not given: the % may be the effect or the level left.
The nature of data set [15]: […] of cell cycle arrest in human HCCLM3 cells assessed as accumulation of cells at S phase at 25 uM relative to control. The format is functional. Also noted: scale not given: the % may be the effect or the level left.
Data set [16] in a line: […] of cell cycle arrest in human HCCLM3 cells assessed as accumulation of cells at G2/M phase at 25 uM relative to control. The format is functional. Details: scale not given: the % may be the effect or the level left.
A short description of data set [17]: Antitumor activity against human HCCLM3 cells xenografted in BALB/c nude mouse assessed as inhibition of tumor growth at 20 mg/kg measured for 14 days relative to control. It counts as functional. The settings on record: HCCLM3, 336 h, time 14 day.
A short description of data set [18]: […] of cell cycle arrest in human HepG2 cells assessed as accumulation of cells at G2/M phase at 50 uM relative to control. It counts as functional. Also noted: scale not given: the % may be the effect or the level left.
Data set [19] is described as follows: […] of cell cycle arrest in human HepG2 cells assessed as accumulation of cells at S phase at 50 uM relative to control. The format is functional. Details: scale not given: the % may be the effect or the level left.
Data set [20] has as its system HepG2. Briefly: Antiproliferative activity against human HepG2 cells assessed as reduction in cell viability at 50 ug/ml measured after 24 hrs relative to control. It counts as functional, cell-based. The settings on record: HepG2, 24 h.
In data set [21] the test system is Bel-7402. Briefly: Antitumor activity against human Bel-7402 cells xenografted in mouse assessed as reduction in tumor volume at 2 mg/kg, ip administered daily for 21 days by caliper method relative to control. It counts as functional. Also noted: scale not given: the % may be the effect or the level left. The settings on record: time 21 day.
Data set [22] has as its system H22. Briefly: Antitumor activity against […] cells xenografted in mouse assessed as reduction in tumor volume at 2 mg/kg, ip administered daily for 21 days by caliper method relative to control. Details: scale not given: the % may be the effect or the level left. The format is functional. The settings on record: time 21 day.
Data set [23] in a line: Half life in Kunming mouse at 15 to 30 mg/kg measured upto 240 mins. It counts as ADME, organism-based. The settings on record: in vivo, dose 15-30 mg/kg.
For data set [24], the system named is Hep 3B2. The data set is described as follows: Cytotoxicity against human Hep3B cells by SRB assay. It counts as functional, cell-based.
A short description of data set [25]: Cytotoxicity against human Zip177 cells by SRB assay. It counts as functional, cell-based.
Data set [26] has as its system Bel-7402. The data set is described as follows: Cytotoxicity against human Bel-7402 cells by SRB assay. The format is functional, cell-based.
Data set [27] can be described thus: Cytotoxicity against human HCC cells by SRB assay. It counts as functional, cell-based.
The test system of data set [28] is SMMC-7721. Briefly: Cytotoxicity against human SMMC-7721 cells assessed as reduction in cell viability by SRB assay. The format is functional, cell-based.

pIC50: −log10 of the molar value.

As to `CCC/C=C/C=C/C(=O)O[C@H]1/C(=C/C(=O)OC)C[C@H]2C[C@H]([C@@H](C)O)OC(=O)C[C@H](O)C[C@@H]3C[C@H](OC(C)=O)C(C)(C)[C@](O)(C[C@@H]4C/C(=C/C(=O)OC)C[C@H](/C=C/C(C)(C)[C@]1(O)O2)O4)O3` [BRYOSTATIN 1], the Activity in data set [1] is 40%; in [2], 39%; in data set [3], 37%; in data set [4] it was 34%; in [5], 44%; in data set [6], 56%. For the same molecule, the Activity came to 32% in data set [7] and 54% in data set [8].
Turning to `C/C=C1/NC(=O)[C@H](Cc2ccccc2)NC(=O)[C@@H](C(C)C)NC(=O)[C@@H]([C@@H](C)CC)NC(=O)[C@H](NC(=O)[C@H](NC(=O)[C@H](CCCN)NC(=O)[C@H]2CCCN2C(=O)[C@H](NC(=O)[C@@H](NC(=O)[C@@H](NC(=O)[C@H](NC(=O)CCCC(C)C)C(C)C)[C@@H](C)O)C(C)C)C(C)C)[C@@H](C)CC)[C@@H](C)OC(=O)[C@H](C(C)C)NC1=O`, the pIC50 (usually −log10 of the IC50, conventionally taken in molar units) in data set [9] is 5.62; in [10], 6.52; in data set [11], 6.52; in data set [12] it was 5.28; in [13], 6.46.
For `COc1cc2ccnc3c2c(c1OC)NC=C3` [AAPTAMINE], the Activity in data set [14] amounted to 72.2%; in [15], 50%; in data set [16], 50%; in data set [18], 50%; in [19] it was 50%. For the same molecule, in data set [17], the inhibition in vivo (as a rule, the change of the read-out against control, counted positive when it falls) at 20 mg/kg is 40.3%.
With H-RIRDAIAHGYIVDKV-OH, the pIC50 in [20] is 4.55.
With `COc1cccc2c1C(=O)c1c(O)c3c(c(O)c1C2=O)C[C@@](O)(C(=O)CO)C[C@@H]3O[C@H]1C[C@H](N)[C@H](O)[C@H](C)O1.Cl` [DOXORUBICIN HYDROCHLORIDE], the results for the Activity in data set [21] and in [22] were 73.5% and 51.9%, respectively. In addition, the half-life (as a rule, the time in which the quantity being followed falls by half) in [23] was 23 h.
On to `COC(=O)[C@H](CCCC(C)C)[C@H]1CC[C@H]2[C@@H]3CC[C@H]4CC(=O)C=C[C@]4(C)[C@H]3CC[C@]12C` [METHYL SPONGOATE], for which the pIC50 in data set [24] is 5.30; in [25], 5.52; in data set [26], 5.77; in data set [27], 5.36; in data set [28], 5.70.
